In this assay the target is T1, Peroxisome proliferator-activated receptor gamma (Homo sapiens, UniProt P37231).
T1 sequence (P37231 whole entry): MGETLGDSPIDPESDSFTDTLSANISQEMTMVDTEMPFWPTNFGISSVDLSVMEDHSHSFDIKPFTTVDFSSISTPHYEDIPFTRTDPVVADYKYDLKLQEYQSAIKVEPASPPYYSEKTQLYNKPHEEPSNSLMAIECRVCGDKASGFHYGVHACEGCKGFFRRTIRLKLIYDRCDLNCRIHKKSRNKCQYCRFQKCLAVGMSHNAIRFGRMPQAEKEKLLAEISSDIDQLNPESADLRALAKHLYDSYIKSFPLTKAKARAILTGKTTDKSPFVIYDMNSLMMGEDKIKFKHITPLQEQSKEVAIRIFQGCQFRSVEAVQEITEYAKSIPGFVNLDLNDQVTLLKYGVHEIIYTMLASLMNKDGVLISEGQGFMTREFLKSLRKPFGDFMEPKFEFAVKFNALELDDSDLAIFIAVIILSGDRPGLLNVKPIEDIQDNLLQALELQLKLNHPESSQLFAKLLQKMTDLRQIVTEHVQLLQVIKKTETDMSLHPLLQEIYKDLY
As to the kind of experiment: Binding affinity to GST-tagged human PPAR-gamma receptor by FRET assay.

IC50 data for 15 molecules are collected here from ChEMBL document CHEMBL3751711, “Design and synthesis of novel Y-shaped barbituric acid derivatives as PPARγ activators” (Eur J Med Chem, 2016).

A word on the IC50: it is the point on the concentration scale where inhibition reaches its midpoint. Turning to `O=C1NC(=O)C(=Cc2ccc(N(CCOCc3ccc(F)cc3)CCOCc3ccc(F)cc3)cc2)C(=O)N1`, the IC50 entry is recorded as “Not Active”.

On to `COc1ccc(COCCN(CCOCc2ccc(Br)cc2)c2ccc(C=C3C(=O)NC(=O)NC3=O)cc2)cc1`, for which the IC50 entry is “Not Active”.

Take `O=C1NC(=O)C(=Cc2ccc(N(CCOc3ccccn3)CCOc3ccccn3)cc2)C(=O)N1`: the IC50 entry is “Not Active”.

In the case of `CC(=O)OCCN(CCOCc1ccccc1)c1ccc(C=C2C(=O)NC(=O)NC2=O)cc1`, under “read-out: IC50”, the IC50 was above 200 µM.

For the molecule `O=C1NC(=O)C(=Cc2ccc(N(CCOc3ccc([N+](=O)[O-])cc3)CCOc3ccc([N+](=O)[O-])cc3)cc2)C(=O)N1`, where the note is “read-out: IC50”, the IC50 worked out at 10.1 µM.

`O=C1NC(=O)C(=Cc2ccc(N(CCOCc3ccccc3)CCOCc3ccccc3)cc2)C(=O)N1`: under “read-out: IC50”, the IC50 was 78.4 µM.

Take `COc1ccc(COCCN(CCOCc2ccc(OC)cc2)c2ccc(C=C3C(=O)NC(=O)NC3=O)cc2)cc1`: the IC50 (read-out: IC50) stood at 59.1 µM.

For `O=C1NC(=O)C(=Cc2ccc(OCc3ccccc3)cc2)C(=O)N1`, the IC50 (read-out: IC50) stood at 0.1 µM.

For `O=C1NC(=O)C(=Cc2ccc(N(CCOCc3ccccc3)CCOC(c3ccccc3)(c3ccccc3)c3ccccc3)cc2)C(=O)N1`, the IC50 entry is given as “Not Active”.

As for `O=C1NC(=O)C(=Cc2ccc(N(CCO)CCOC(c3ccccc3)(c3ccccc3)c3ccccc3)cc2)C(=O)N1`, the IC50 (read-out: IC50) came to 22.2 µM.

For `N#Cc1ccc(OCCN(CCOc2ccc(C#N)cc2)c2ccc(C=C3C(=O)NC(=O)NC3=O)cc2)cc1`, under “read-out: IC50”, the IC50 was found to be 6.5 µM.

Consider `CC(=O)OCCN(CCOC(C)=O)c1ccc(C=C2C(=O)NC(=O)NC2=O)cc1`, for which the IC50 entry is given as “Not Active”.

In the case of `COc1ccc(COCCN(CCOc2ccccn2)c2ccc(C=C3C(=O)NC(=O)NC3=O)cc2)cc1`, the IC50 (read-out: IC50) amounted to 84 µM.

Take `COc1ccc(COCCN(CCOCc2ccccc2)c2ccc(C=C3C(=O)NC(=O)NC3=O)cc2)cc1`: the IC50 (read-out: IC50) was determined as 191 µM.

As to `COc1ccc(COCCN(CCOC(C)=O)c2ccc(C=C3C(=O)NC(=O)NC3=O)cc2)cc1`, the IC50 result was “Not Active”.
